Measured values from US5461057A, “Hydro-ethano-indeno-pyridines” (priority 1994, dated 1995).
Where two headings read alike, the source gives them in different places.

Assays:
[1] = tested on: LOX human melanoma cell adhesion to human fibrinogen; experiment: LOX cell adhesion to fibrinogen; assay type: cell-based; conditions: read-out: Fibrinogen IC50
Procedure: (§1) Adhesion assays were run essentially as described previously (Pai et al., J. Biomed. Res. 2: 53, 1992). 96-well plates were coated with human fibronectin (140 ng/well), human vitronectin (75 ng/well), human collagen I (100 ng/well), human collagen IV (100 ng/well), human fibrinogen (1 μg/well), murine laminin (600 ng/well), or polylysine, and incubated overnight in a humidified 37° C. incubator. Excess fibronectin or other substrate was then removed and 0.2 ml of 2 mg/ml bovine serum albumin (BSA)in Dulbecco's phosphate-buffered saline (DPBS) was added to each well, incubated for 2 hours at 37° C., and removed. LOX human melanoma cells, M27 murine lung carcinoma cells or B16F10 mouse melanoma cells were detached from tissue culture flasks with RPMI medium containing 0.2M urea and 10 mM EDTA, and 0.18 ml of cells were added to each well to a final cell concentration of 1×10^5 cells/well. For inhibition studies 20 μl of 10× compound was added to the wells prior to cell addition. Cells were allowed to adhere for 1 hour at 37° C. The wells were then gently washed twice with 0.2 ml DPBS. The fluorescent dye calcein AM (Molecular Probes, Eugene Oreg.) in DPBS (0.1 ml of 1 μM) was added to each well, and the plates were incubated for 1 hour at room temperature. Adherent cells were quantitated by reading the fluorescence on a Cytofluor 2300 fluorescent plate reader (Millipore) at 485 nm excitation and 530 nm emission.

[2] = tested on: LOX human melanoma cell adhesion to human fibronectin; experiment: LOX melanoma cell adhesion to fibronectin; assay type: cell-based; conditions: Homo sapiens, LOX; for inhibition at 10 µM: read-out: % Inhibition at 10 μM; for inhibition at 50 µM: read-out: % Inhibition at 50 μM
Method in brief: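 Compound added to fibronectin-coated (140 ng/well), BSA-blocked wells before LOX cells (1×10^5/well, detached with urea/EDTA). Cells adhered 1 h at 37 °C, then washed. Adherent cells quantified by calcein AM fluorescence (485/530 nm); IC50 for adhesion inhibition.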

ELAM-1 = ELAM-1 (Homo sapiens, UniProt P16581); experiment: cell-based
Chain of ELAM-1 (P16581 22-610): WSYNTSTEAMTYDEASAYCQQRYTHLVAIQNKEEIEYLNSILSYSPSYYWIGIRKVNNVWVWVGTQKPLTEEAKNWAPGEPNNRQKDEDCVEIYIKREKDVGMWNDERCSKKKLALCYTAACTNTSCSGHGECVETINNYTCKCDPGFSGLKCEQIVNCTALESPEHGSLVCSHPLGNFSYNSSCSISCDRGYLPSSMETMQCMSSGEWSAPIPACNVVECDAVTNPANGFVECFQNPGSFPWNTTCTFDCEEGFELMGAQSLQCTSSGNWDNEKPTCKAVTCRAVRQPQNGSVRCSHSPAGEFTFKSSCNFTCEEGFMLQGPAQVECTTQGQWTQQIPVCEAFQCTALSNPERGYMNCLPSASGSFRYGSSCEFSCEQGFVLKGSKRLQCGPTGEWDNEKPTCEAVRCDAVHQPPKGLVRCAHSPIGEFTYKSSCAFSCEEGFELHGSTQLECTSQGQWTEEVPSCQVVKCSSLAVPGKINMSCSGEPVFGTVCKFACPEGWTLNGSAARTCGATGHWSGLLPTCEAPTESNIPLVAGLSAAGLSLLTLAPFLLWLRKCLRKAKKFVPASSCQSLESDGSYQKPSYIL
Procedure: Cell adhesion to ELAM-1 was measured essentially as described previously (Pal et al., J. Biomed. Res. 2: 53, 1992). Undifferentiated HL-60 leukemia cells were prelabelled for 30 minutes with 1 μM calcein AM in DPBS without calcium or magnesium, and the cells were washed twice with the same medium before addition to 96-well plates containing monolayers of mouse L cells (5×10^4 cells/well) transfected with cDNA for the adhesion molecule ELAM-1. Adhesion was allowed to proceed for 30 minutes at room temperature before washing and quantitation of the remaining fluorescent HL-60 cells as described above.
ELAM-1 (E-selectin) is a member of the selectin class of adhesion molecules.

[3] = Calcein cytotoxicity assay; assay type: cell-based; conditions: human, lox melanoma cells; for CC50 at 2 h / CC50 at 6 h: calcein AM assay; for CC50 at 2 h: read-out: 2 Hr Tox LD50; for CC50 at 6 h: read-out: 6 Hr Tox LD50
[4] = tested on: LOX human melanoma cell adhesion to human collagen IV; experiment: LOX cell adhesion to collagen IV; assay type: cell-based; conditions: read-out: Collagen IV IC50
Procedure: as §1

[5] = tested on: B16-F10 mouse melanoma cell adhesion to fibronectin; experiment: B16-F10 melanoma cell adhesion to fibronectin; assay type: cell-based; conditions: read-out: B16 FN IC50
Procedure: as §1

[6] = tested on: LOX human melanoma cell adhesion to polylysine; experiment: LOX melanoma cell adhesion to polylysine; assay type: cell-based; conditions: read-out: Poly Lys IC50
LOX human melanoma cells = experiment: Tumor cell invasion through collagen/fibronectin coated membranes; assay type: cell-based; conditions: for IC50: Homo sapiens, 5 hours; for inhibition of in vitro tumor cell invasion: fibronectin/collagen matrix
Procedure: […] Cell Invasion Through Collagen/Fibronectin Coated Membranes:
Nucleopore polycarbonate membranes (8 μm pore size) were coated with 0.05 ml of type I collagen and allowed to dry overnight. 210 μl of serum free DMEM with BSA was added to each Boyden chamber. Membranes were placed in chambers and upper chambers were screwed on. Human fibronectin (50 μl of 0.1 mg/ml solution in DMEM with BSA) was added to the top chamber and allowed to sit on membranes for 1 hour at room temperature. Compounds (50 μl) at 10× concentration in DMEM with BSA were added to the chambers. LOX melanoma cells were detached from flasks with trypsin/EDTA solution and resuspended in RPMI with 10% fetal bovine serum. Cells were centrifuged, washed 2× with DMEM with BSA, and resuspended in 10 ml of DMEM with BSA. LOX cells (0.45 ml of 7.8×10^5 cells per ml) were added to each chamber and chambers were incubated for 5 hours at 37° C. The medium was removed from the upper chamber by aspiration, the top chamber was unscrewed, and the membrane was removed. The membrane was inverted, pinned to a dissecting tray, and fixed with Diff Quik fixative for 3 minutes The fixative was then removed and Diff Quik Stain was added for 2 minutes. The stain was decanted and membranes were rinsed with distilled water. Membranes were inverted onto glass slides, and non-invading cells were wiped away with a cotton swab. Permount was added to the slide and the membrane was covered with a cover slip. The number of cells that invaded was quantitated on a Nikon TMS microscope with C-2 Image Analyzer software (Olympus Corp.).
The greater potency of the compounds in this assay (IC50 for compound B<400 nM) may result from the longer duration of this assay (5 hours) relative to the fibronectin adhesion assay (1 hour).

MTT cytotoxicity assay = assay type: cell-based; conditions: human, lox melanoma cells; for CC50 at 1 h: read-out: MTT 1 Hr LD50
Procedure: LOX human melanoma cells, in RPMI medium with 2 mg/ml BSA and 25 mM HEPES, pH 7.4, were seeded at 4×10^4 cells/well in 96-well microtiter plates and grown overnight in a humidified 37° C. incubator. On the following day, the medium was aspirated and wells were washed once with 0.1 ml of DPBS. Compounds (0.1 ml) in DPBS were added to wells in quadruplicate at appropriate concentrations. The cells were then incubated with test compound for 1 hour at 37° C. Wells were aspirated and washed 2× with 0.1 ml DPBS. MTT [3-(4,5-Dimethylthiazol-2-yl)-2,5-diphenyltetrazolium bromide] (0.1 ml of 1 mg/ml solution in PBS from Sigma Chemical Co.) was added to each well and incubated for 2 hour at 37° C. MTT was aspirated and 0.1 ml of 50% N,N-dimethylformamide with 20% sodium dodecyl sulfate was added to each well. Plates were shaken for 10 minutes on a Titer-Plate shaker (Labline) at room temperature. Optical density was read at 570 nm with a plate-reading spectrophotometer (Dynatech MR5000).

| SMILES | IC50 [1] [µM] | IC50 ([2]; 1 h, read-out: LOX FN IC50) [µM] | inhibition at 10 µM [2] [%] | inhibition at 50 µM [2] [%] | IC50 ([2]; read-out: Fibronectin IC50) [µM] | IC50 (ELAM-1) [µM] | CC50 at 2 h ([3]; 2 hours) [µM] | CC50 at 6 h ([3]; 6 hours) [µM] | IC50 [4] [µM] | IC50 [5] [µM] | IC50 [6] [µM] | IC50 (LOX human melanoma cells; read-out: Invasion IC50) [µM] | inhibition of in vitro tumor cell invasion (LOX human melanoma cells) | CC50 at 1 h (MTT cytotoxicity assay) [µM] | selectivity ratio at 2 h ([3]; 2 hours, calcein AM, read-out: selectivity for blockade of fibronectin adhesion vs. cytotoxicity (2 Hour Tox)) | selectivity ratio at 6 h ([3]; 6 hours, calcein AM, read-out: selectivity for blockade of invasion vs. cytotoxicity (6 Hour Tox)) | IC50 (LOX human melanoma cells; read-out: Invasion IC50 (text)) [µM] | selectivity ratio at 1 h (MTT cytotoxicity assay; MTT, read-out: selectivity for blockade of fibronectin adhesion vs. cytotoxicity (MTT 1 hour)) |
| --- | --- | --- | --- | --- | --- | --- | --- | --- | --- | --- | --- | --- | --- | --- | --- | --- | --- | --- |
| CN1C2CCC1C1C(=C(c3ccc(Cl)cc3)c3ccccc31)C2 (stereo not shown) [C] | 6.2 | 7.3 | 58.6 | 101 | 7.3 | > 50 | 85.3 | 22.5 | 9.9 | 15.1 | 248 | 0.66 | inhibit in vitro tumor cell invasion through a fibronectin/collagen matrix | 95.1 |  |  |  |  |
| COc1ccc(C2=C3CC4CCC(N4)C3c3ccccc32)cc1 (stereo not shown) [Compound B] | 9.9 | 5.1 | 61.8 | 101 | 5.1 | > 50 | 74.5 | 24.6 | 16.2 | 14.7 | 22.3 | < 0.4 | inhibit in vitro tumor cell invasion through a fibronectin/collagen matrix | 97.6 | 15 | > 61 | < 0.4 | 19 |
| Cc1ccc(C2=C3CC4CCC(C3c3ccccc32)N4C)cc1 (stereo not shown) [J] | 13.5 | 5.3 | 31.1 | 101 | 5.3 | > 50 | 58.4 | 30.6 | 10 | 15.9 | 53.2 | 0.48 | inhibit in vitro tumor cell invasion through a fibronectin/collagen matrix | 54.6 |  |  |  |  |
